# Measured values reported in patent US12643871B2, “Aryl formamide compound containing chiral sulfur oxide or salt thereof, preparation method, herbicidal composition and use thereof” (Qingdao Kingagroot Chemical Compound Co., Ltd., priority 2019, dated 2026).
# Key:
# Assay in all cases: Weeding effect in post-emergence stage
# Assay type in all cases: in vivo
# Details in all cases: 250 g/ha; 2 leaf stage; 15 days after application; fresh weight control rate
# Abutilon theophrasti = system: Abutilon theophrasti
# Summary of the method: (§1)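 Activity graded 0 (<5%) to 5 (>85%) from fresh-weight control rate, averaged over three repeats, 15 days after a spray-tower application. Plants at 2-leaf stage (2 weeks post-sowing) received 15–500 g/ha of compound formulated in acetone, Tween 80 and methyl oleate synergist (1.5 L/ha).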
# Amaranthus retroflexus = system: Amaranthus retroflexus
# Summary of the method: as §1
# Digitaria sanguinalis = system: Digitaria sanguinalis
# Summary of the method: as §1
# Echinochloa crusgali = system: Echinochloa crusgali
# Summary of the method: as §1
# Setaria viridis = system: Setaria viridis
# Summary of the method: as §1
Compound,"weeding effect in post-emergence stage, activity level (growth control rate), Abutilon theophrasti (Abutilon theophrasti)","weeding effect in post-emergence stage, activity level (growth control rate), Amaranthus retroflexus (Amaranthus retroflexus)","weeding effect in post-emergence stage, activity level (growth control rate), Digitaria sanguinalis (Digitaria sanguinalis)","weeding effect in post-emergence stage, activity level (growth control rate), Echinochloa crusgali (Echinochloa crusgali)","weeding effect in post-emergence stage, activity level (growth control rate), Setaria viridis (Setaria viridis)"
Cc1nnc(NC(=O)c2ccc(C(F)(F)F)c([S@+]([O-])CCCO)c2F)o1 [Compound 55],5 (Level 5: growth control rate is above 85%),5 (Level 5: growth control rate is above 85%),5 (Level 5: growth control rate is above 85%),5 (Level 5: growth control rate is above 85%),5 (Level 5: growth control rate is above 85%)
Cc1nnc(NC(=O)c2ccc(C(F)(F)F)c([S@+]([O-])CC(C)O)c2F)o1 (some centres unmarked) [Compound 56],5 (Level 5: growth control rate is above 85%),5 (Level 5: growth control rate is above 85%),5 (Level 5: growth control rate is above 85%),5 (Level 5: growth control rate is above 85%),5 (Level 5: growth control rate is above 85%)
Cc1nnc(NC(=O)c2ccc(C(F)(F)F)c([S@+]([O-])CCCN)c2F)o1 [Compound 57],5 (Level 5: growth control rate is above 85%),5 (Level 5: growth control rate is above 85%),5 (Level 5: growth control rate is above 85%),5 (Level 5: growth control rate is above 85%),5 (Level 5: growth control rate is above 85%)
CCOC[S+]([O-])c1c(C(F)(F)F)ccc(C(=O)Nc2nnc(C)o2)c1F (centres unmarked) [Compound 70],5 (Level 5: growth control rate is above 85%),5 (Level 5: growth control rate is above 85%),5 (Level 5: growth control rate is above 85%),5 (Level 5: growth control rate is above 85%),5 (Level 5: growth control rate is above 85%)
COC(C)[S+]([O-])c1c(C(F)(F)F)ccc(C(=O)Nc2nnc(C)o2)c1F (centres unmarked) [Compound 71],5 (Level 5: growth control rate is above 85%),5 (Level 5: growth control rate is above 85%),5 (Level 5: growth control rate is above 85%),5 (Level 5: growth control rate is above 85%),5 (Level 5: growth control rate is above 85%)
COCC[S@@+]([O-])c1c(C(F)(F)F)ccc(C(=O)Nc2nnc(C)o2)c1F [Compound 72],5 (Level 5: growth control rate is above 85%),5 (Level 5: growth control rate is above 85%),5 (Level 5: growth control rate is above 85%),5 (Level 5: growth control rate is above 85%),5 (Level 5: growth control rate is above 85%)
CCOCC[S@@+]([O-])c1c(C(F)(F)F)ccc(C(=O)Nc2nnc(C)o2)c1F [Compound 73],5 (Level 5: growth control rate is above 85%),5 (Level 5: growth control rate is above 85%),5 (Level 5: growth control rate is above 85%),5 (Level 5: growth control rate is above 85%),5 (Level 5: growth control rate is above 85%)
COC(C)C[S@@+]([O-])c1c(C(F)(F)F)ccc(C(=O)Nc2nnc(C)o2)c1F (some centres unmarked) [Compound 74],5 (Level 5: growth control rate is above 85%),5 (Level 5: growth control rate is above 85%),5 (Level 5: growth control rate is above 85%),5 (Level 5: growth control rate is above 85%),5 (Level 5: growth control rate is above 85%)
COCCC[S@@+]([O-])c1c(C(F)(F)F)ccc(C(=O)Nc2nnc(C)o2)c1F [Compound 75],5 (Level 5: growth control rate is above 85%),5 (Level 5: growth control rate is above 85%),5 (Level 5: growth control rate is above 85%),5 (Level 5: growth control rate is above 85%),5 (Level 5: growth control rate is above 85%)
Cc1nnc(NC(=O)c2ccc(C(F)(F)F)c([S@+]([O-])CCOC(F)F)c2F)o1 [Compound 164],5 (Level 5: growth control rate is above 85%),5 (Level 5: growth control rate is above 85%),5 (Level 5: growth control rate is above 85%),5 (Level 5: growth control rate is above 85%),5 (Level 5: growth control rate is above 85%)
Cc1nnc(NC(=O)c2ccc(C(F)(F)F)c([S@+]([O-])CCOC(F)(F)F)c2F)o1 [Compound 165],5 (Level 5: growth control rate is above 85%),5 (Level 5: growth control rate is above 85%),5 (Level 5: growth control rate is above 85%),5 (Level 5: growth control rate is above 85%),5 (Level 5: growth control rate is above 85%)
CCC(=O)[S+]([O-])c1c(C(F)(F)F)ccc(C(=O)Nc2nnc(C)o2)c1F (centres unmarked) [Compound 167],5 (Level 5: growth control rate is above 85%),5 (Level 5: growth control rate is above 85%),5 (Level 5: growth control rate is above 85%),5 (Level 5: growth control rate is above 85%),5 (Level 5: growth control rate is above 85%)
Cc1nnc(NC(=O)c2ccc(C(F)(F)F)c([S@@+]([O-])C(=O)CC(F)(F)F)c2F)o1 [Compound 169],5 (Level 5: growth control rate is above 85%),5 (Level 5: growth control rate is above 85%),5 (Level 5: growth control rate is above 85%),5 (Level 5: growth control rate is above 85%),5 (Level 5: growth control rate is above 85%)
CSC[S@+]([O-])c1c(C(F)(F)F)ccc(C(=O)Nc2nnc(C)o2)c1F [Compound 203],5 (Level 5: growth control rate is above 85%),5 (Level 5: growth control rate is above 85%),5 (Level 5: growth control rate is above 85%),5 (Level 5: growth control rate is above 85%),5 (Level 5: growth control rate is above 85%)
CSCC[S@@+]([O-])c1c(C(F)(F)F)ccc(C(=O)Nc2nnc(C)o2)c1F [Compound 204],5 (Level 5: growth control rate is above 85%),5 (Level 5: growth control rate is above 85%),5 (Level 5: growth control rate is above 85%),5 (Level 5: growth control rate is above 85%),5 (Level 5: growth control rate is above 85%)
COc1c(C(=O)Nc2nnc(C)o2)ccc(C(F)(F)F)c1[S@+]([O-])C(C)C [Compound 307],5 (Level 5: growth control rate is above 85%),5 (Level 5: growth control rate is above 85%),5 (Level 5: growth control rate is above 85%),5 (Level 5: growth control rate is above 85%),5 (Level 5: growth control rate is above 85%)
